Experimental findings from US11739098B2 (BRISTOL-MYERS SQUIBB COMPANY, priority 2017, dated 2023) are described below.

The IC50 is the midpoint of a concentration-inhibition curve. Higher therefore signals weaker potency in that assay.

Holding throughout (assay type): cell-based
One assay concerns the target T1, human TLR7 (Homo sapiens, UniProt Q9NYK1).
T1 construct: host or cells: HEK-Blue cells (HEK293-derived reporter line)
T1 sequence (Q9NYK1 27-1049): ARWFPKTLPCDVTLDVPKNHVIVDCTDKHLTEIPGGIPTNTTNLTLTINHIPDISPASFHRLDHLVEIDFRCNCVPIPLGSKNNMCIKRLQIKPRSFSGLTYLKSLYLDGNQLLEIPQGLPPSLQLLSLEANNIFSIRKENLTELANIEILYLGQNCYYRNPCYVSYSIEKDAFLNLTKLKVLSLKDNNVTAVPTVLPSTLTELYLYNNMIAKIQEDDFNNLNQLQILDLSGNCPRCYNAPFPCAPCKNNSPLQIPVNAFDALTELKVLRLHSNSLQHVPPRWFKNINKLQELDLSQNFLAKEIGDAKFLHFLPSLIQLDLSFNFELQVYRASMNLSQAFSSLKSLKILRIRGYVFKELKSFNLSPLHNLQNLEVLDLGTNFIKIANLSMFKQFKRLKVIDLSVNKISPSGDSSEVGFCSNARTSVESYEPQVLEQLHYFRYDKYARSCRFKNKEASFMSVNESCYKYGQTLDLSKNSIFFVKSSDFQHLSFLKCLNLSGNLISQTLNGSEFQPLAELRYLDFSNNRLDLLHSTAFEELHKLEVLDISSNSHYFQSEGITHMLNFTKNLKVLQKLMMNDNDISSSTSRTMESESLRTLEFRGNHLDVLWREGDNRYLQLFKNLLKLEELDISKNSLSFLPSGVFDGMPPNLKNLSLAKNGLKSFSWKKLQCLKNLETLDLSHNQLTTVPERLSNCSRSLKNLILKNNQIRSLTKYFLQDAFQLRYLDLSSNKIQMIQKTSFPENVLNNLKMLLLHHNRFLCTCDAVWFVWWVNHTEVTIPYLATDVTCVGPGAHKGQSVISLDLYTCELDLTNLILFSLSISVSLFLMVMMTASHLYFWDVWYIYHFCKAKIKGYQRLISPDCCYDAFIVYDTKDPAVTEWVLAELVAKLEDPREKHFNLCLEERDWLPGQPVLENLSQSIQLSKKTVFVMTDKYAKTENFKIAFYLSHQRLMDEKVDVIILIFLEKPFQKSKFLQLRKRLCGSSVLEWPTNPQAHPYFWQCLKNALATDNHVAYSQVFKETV
In words: TLR7 inhibition reporter assay (HEK-Blue cells, SEAP reporter, gardiquimod stimulation). Conditions: HEK-Blue cells overexpressing human TLR7, SEAP reporter, gardiquimod 7.5 μM. The method, boiled down: (§1)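 HEK-Blue cells overexpressing the receptor, with NF-κB/AP-1-driven SEAP, were pre-treated 30 min at room temperature with compound (0.05 nM–50 μM), then stimulated with gardiquimod 7.5 μM (TLR7), R848 15.9 μM (TLR8) or ODN2006 5 nM (TLR9). SEAP was read after 22 h at 37 °C as percent inhibition.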
For orientation: A reporter such as luciferase makes a cellular process visible.

Another assay deals with T2, human TLR8 (Homo sapiens, UniProt Q9NR97).
T2 construct: host or cells: HEK-Blue cells (HEK293-derived reporter line)
T2 sequence (Q9NR97 27-1041): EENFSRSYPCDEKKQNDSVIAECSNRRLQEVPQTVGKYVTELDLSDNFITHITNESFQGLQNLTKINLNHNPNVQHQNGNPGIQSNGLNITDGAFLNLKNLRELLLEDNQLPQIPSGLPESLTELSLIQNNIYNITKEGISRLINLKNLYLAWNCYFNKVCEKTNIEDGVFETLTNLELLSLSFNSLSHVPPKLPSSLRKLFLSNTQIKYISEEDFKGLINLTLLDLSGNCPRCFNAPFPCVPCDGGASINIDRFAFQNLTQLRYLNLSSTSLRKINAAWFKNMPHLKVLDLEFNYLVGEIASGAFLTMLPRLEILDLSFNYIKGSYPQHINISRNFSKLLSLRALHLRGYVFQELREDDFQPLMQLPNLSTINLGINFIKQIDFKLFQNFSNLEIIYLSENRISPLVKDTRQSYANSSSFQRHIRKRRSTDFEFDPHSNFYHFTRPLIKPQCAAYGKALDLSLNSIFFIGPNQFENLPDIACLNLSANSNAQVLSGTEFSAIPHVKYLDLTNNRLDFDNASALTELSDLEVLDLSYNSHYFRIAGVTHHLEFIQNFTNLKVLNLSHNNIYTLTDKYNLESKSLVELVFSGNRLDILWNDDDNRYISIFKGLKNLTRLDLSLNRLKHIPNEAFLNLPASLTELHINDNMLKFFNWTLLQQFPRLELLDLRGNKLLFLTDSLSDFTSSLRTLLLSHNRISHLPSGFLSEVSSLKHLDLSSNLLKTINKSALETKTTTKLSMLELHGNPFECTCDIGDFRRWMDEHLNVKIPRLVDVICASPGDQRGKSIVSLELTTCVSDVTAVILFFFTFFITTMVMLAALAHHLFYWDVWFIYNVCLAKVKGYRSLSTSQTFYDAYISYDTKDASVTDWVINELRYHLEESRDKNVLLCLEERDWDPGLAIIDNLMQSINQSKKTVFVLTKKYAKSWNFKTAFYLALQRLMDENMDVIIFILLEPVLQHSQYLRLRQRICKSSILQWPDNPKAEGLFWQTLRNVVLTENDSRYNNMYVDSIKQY
In words: TLR8 inhibition reporter assay (HEK-Blue cells, SEAP reporter, R848 stimulation). To be noted: HEK-Blue cells overexpressing human TLR8, SEAP reporter, R848 15.9 μM. The method, boiled down:
as §1

A further assay has as its target T3, human TLR9 (Homo sapiens, UniProt Q9NR96).
T3 construct: host or cells: HEK-Blue cells (HEK293-derived reporter line)
T3 sequence (Q9NR96 26-1032): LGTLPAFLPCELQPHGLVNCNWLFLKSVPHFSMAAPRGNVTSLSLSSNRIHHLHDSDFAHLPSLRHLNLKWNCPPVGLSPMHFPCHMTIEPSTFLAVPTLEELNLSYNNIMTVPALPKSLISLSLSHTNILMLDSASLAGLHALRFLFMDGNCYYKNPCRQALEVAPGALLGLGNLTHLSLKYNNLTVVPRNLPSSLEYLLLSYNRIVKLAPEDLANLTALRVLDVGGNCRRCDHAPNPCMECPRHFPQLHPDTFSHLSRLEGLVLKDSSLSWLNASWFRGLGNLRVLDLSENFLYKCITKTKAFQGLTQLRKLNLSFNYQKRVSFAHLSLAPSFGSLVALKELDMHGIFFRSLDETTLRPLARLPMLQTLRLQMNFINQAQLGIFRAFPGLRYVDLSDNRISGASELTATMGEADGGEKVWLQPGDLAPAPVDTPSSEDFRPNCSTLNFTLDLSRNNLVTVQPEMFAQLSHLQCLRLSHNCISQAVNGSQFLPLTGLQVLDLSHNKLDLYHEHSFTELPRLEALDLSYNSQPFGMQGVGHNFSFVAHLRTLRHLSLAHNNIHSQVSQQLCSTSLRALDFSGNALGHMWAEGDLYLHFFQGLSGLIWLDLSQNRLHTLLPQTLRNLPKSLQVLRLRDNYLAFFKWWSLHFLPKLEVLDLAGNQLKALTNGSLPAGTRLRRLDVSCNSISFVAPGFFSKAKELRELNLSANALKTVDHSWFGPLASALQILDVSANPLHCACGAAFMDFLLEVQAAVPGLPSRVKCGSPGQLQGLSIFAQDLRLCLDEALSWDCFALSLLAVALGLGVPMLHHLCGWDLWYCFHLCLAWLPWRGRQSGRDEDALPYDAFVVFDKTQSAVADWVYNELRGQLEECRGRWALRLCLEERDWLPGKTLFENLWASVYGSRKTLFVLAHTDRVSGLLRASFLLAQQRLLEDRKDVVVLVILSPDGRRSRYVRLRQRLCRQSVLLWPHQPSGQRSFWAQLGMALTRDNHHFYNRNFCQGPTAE
In words: TLR9 inhibition reporter assay (HEK-Blue cells, SEAP reporter, ODN2006 stimulation). To be noted: HEK-Blue cells overexpressing human TLR9, SEAP reporter, ODN2006 5 nM. The gist of the method:
as §1

Regarding `CC(C)c1c(-c2cnc3c(cnn3C)c2)[nH]c2ccc(C3CCN(CC(=O)N(C)C)CC3)cc12` [Example 367, 2-(4-(3-isopropyl-2-(1-methyl-1H-pyrazolo[3,4-b]pyridin-5-yl)-1H-indol-5-yl)piperidin-1-yl)-N,N-dimethylacetamide], the IC50 on human TLR7 was less than 0.1 µM; at human TLR8, less than 0.1 µM; on human TLR9, 1 to 50 µM.

On to `Cc1cc(-c2[nH]c3ccc(C4CCNCC4)cc3c2C(C)C)cc2nccnc12` [Example 88, 7-(3-isopropyl-5-(piperidin-4-yl)-1H-indol-2-yl)-5-methylquinoxaline], for which the IC50 was less than 0.1 µM on human TLR7, 0.1 to 1 µM against human TLR8 and 1 to 50 µM against human TLR9.

For `CC(C)c1c(-c2cnc3ccnn3c2)[nH]c2ccc(C3CCNCC3)cc12` [Example 181, 6-(3-isopropyl-5-(piperidin-4-yl)-1H-indol-2-yl)pyrazolo[1,5-a]pyrimidine], the values for the IC50 against human TLR7, on human TLR8 and on human TLR9 were 1 to 50 µM, more than 3.13 µM and 1 to 50 µM, respectively.

Consider `CNC(=O)CN1CCC(c2ccc3[nH]c(-c4cc(C)c5c(cnn5C)c4)c(C(C)C)c3c2)CC1` [Example 364, 2-(4-(2-(1,7-dimethyl-1H-indazol-5-yl)-3-isopropyl-1H-indol-5-yl)piperidin-1-yl)-N-methylacetamide], for which the 50% inhibitory concentration (IC50) was 0.1 to 1 µM against human TLR7, more than 3.13 µM at human TLR8 and 1 to 50 µM against human TLR9.

With `Cc1c(-c2ccnc3[nH]cc(O)c23)[nH]c2ccc(C3CCNCC3)cc12` [Example 212, 4-(3-methyl-5-(piperidin-4-yl)-1H-indol-2-yl)-1H-pyrrolo[2,3-b]pyridin-3-ol], the concentration for half-maximal inhibition (IC50) at human TLR7, at human TLR8 and at human TLR9 was 1 to 50 µM each time.

For `CC(C)c1c(-c2ccn3cnnc3c2)[nH]c2ccc(C3CCN(C(=O)CN(C)C)CC3)cc12` [Example 466, 1-(4-(2-([1,2,4]triazolo[4,3-a]pyridin-7-yl)-3-isopropyl-1H-indol-5-yl)piperidin-1-yl)-2-(dimethylamino)ethan-1-one], the results for the half-maximal inhibitory concentration (IC50) on human TLR7, at human TLR8 and on human TLR9 were less than 0.1 µM, 0.1 to 1 µM and 0.1 to 1 µM, respectively.

With `CC(C)c1c(-c2ccc3ncccc3c2)[nH]c2ccc(C3CCNCC3)cc12` [Example 190, 6-(3-isopropyl-5-(piperidin-4-yl)-1H-indol-2-yl)quinoline], the values for the half-inhibitory concentration (IC50) at human TLR7, against human TLR8 and on human TLR9 were less than 0.1 µM, 1 to 50 µM and 1 to 50 µM, respectively.

With `CCc1c(-c2ccnc3nn[nH]c23)[nH]c2ccc(C3CCNCC3)cc12` [Example 56, 7-(3-ethyl-5-(piperidin-4-yl)-1H-indol-2-yl)-1H-[1,2,3]triazolo[4,5-b] pyridine], the half-maximal inhibitory concentration (IC50) at human TLR7, at human TLR8 and against human TLR9 was 1 to 50 µM throughout.

Take `Cc1c(-c2[nH]c3ccc(C4CCN(CC(C)(C)O)CC4)cc3c2C(C)C)nn2ncnc2c1C` [Example 747, 1-(4-(2-(7,8-dimethyl-[1,2,4]triazolo[1,5-b]pyridazin-6-yl)-3-isopropyl-1H-indol-5-yl)piperidin-1-yl)-2-methylpropan-2-ol]: the figures for the concentration for half-maximal inhibition (IC50) on human TLR7, against human TLR8 and against human TLR9 were less than 0.1 µM, less than 0.1 µM and 1 to 50 µM, respectively.

Regarding `Cc1cn2cc(-c3[nH]c4ccc(C5CCN(C(C)C)CC5)cc4c3C(C)C)ccc2n1` [Example 945, 6-(3-isopropyl-5-(1-isopropylpiperidin-4-yl)-1H-indol-2-yl)-2-methylimidazo[1,2-a]pyridine], the IC50 against human TLR7 is less than 0.1 µM; against human TLR8, 0.1 to 1 µM; against human TLR9, 0.1 to 1 µM.

As for `Cc1cc(-c2[nH]c3ccc(C4CCN(CC(=O)N(C)C)CC4)cc3c2C(C)C)cc2[nH]cnc12` [Example 287, 2-(4-(3-isopropyl-2-(4-methyl-1H-benzo[d]imidazol-6-yl)-1H-indol-5-yl)piperidin-1-yl)-N,N-dimethylacetamide], the concentration for half-maximal inhibition (IC50) against human TLR7 is 1 to 50 µM; at human TLR8, 0.1 to 1 µM; against human TLR9, 1 to 50 µM.

For the molecule `CC(C)c1c(-c2ccc3ncnn3n2)[nH]c2ccc(C3CCN(C4COC4)CC3)cc12` [Example 729, 6-(3-isopropyl-5-(1-(oxetan-3-yl)piperidin-4-yl)-1H-indol-2-yl)-[1,2,4]triazolo[1,5-b]pyridazine], the IC50 at human TLR7 was less than 0.1 µM; against human TLR8, 0.1 to 1 µM; against human TLR9 it was 1 to 50 µM.

Turning to `Cc1cc(-c2[nH]c3ccc(C4CCN(C5CCOCC5)CC4)cc3c2C(C)C)nn2ncnc12` [Example 686, 6-(3-isopropyl-5-(1-(tetrahydro-2H-pyran-4-yl)piperidin-4-yl)-1H-indol-2-yl)-8-methyl-[1,2,4]triazolo[1,5-b]pyridazine], the IC50 on human TLR7 was less than 0.1 µM; against human TLR8, less than 0.1 µM; at human TLR9, 1 to 50 µM.
